Results: patent US10280170B2, “Substituted 4,5,6,7-tetrahydro-pyrazolo[1,5-a]pyrazine derivatives and 5,6,7,8-tetrahydro-4H-pyrazolo[1,5-a][1,4]diazepine derivatives as Ros1 inhibitors” (Janssen Pharmaceutica NV, priority 2014, dated 2019)
Like-named read-outs stand apart in the source and are kept apart here.

Assays:
Ros1 enzyme = biological target: T1, Ros1 enzyme (Homo sapiens, UniProt P08922); experiment: Ros1 enzymatic assay; assay type: biochemical; conditions: Ros1 enzymatic assay; for IC50: read-out: ROS1 pIC50 (converted)
T1 construct: 0.5 μg/ml Ros1 enzyme
T1 sequence (P08922 28-2347): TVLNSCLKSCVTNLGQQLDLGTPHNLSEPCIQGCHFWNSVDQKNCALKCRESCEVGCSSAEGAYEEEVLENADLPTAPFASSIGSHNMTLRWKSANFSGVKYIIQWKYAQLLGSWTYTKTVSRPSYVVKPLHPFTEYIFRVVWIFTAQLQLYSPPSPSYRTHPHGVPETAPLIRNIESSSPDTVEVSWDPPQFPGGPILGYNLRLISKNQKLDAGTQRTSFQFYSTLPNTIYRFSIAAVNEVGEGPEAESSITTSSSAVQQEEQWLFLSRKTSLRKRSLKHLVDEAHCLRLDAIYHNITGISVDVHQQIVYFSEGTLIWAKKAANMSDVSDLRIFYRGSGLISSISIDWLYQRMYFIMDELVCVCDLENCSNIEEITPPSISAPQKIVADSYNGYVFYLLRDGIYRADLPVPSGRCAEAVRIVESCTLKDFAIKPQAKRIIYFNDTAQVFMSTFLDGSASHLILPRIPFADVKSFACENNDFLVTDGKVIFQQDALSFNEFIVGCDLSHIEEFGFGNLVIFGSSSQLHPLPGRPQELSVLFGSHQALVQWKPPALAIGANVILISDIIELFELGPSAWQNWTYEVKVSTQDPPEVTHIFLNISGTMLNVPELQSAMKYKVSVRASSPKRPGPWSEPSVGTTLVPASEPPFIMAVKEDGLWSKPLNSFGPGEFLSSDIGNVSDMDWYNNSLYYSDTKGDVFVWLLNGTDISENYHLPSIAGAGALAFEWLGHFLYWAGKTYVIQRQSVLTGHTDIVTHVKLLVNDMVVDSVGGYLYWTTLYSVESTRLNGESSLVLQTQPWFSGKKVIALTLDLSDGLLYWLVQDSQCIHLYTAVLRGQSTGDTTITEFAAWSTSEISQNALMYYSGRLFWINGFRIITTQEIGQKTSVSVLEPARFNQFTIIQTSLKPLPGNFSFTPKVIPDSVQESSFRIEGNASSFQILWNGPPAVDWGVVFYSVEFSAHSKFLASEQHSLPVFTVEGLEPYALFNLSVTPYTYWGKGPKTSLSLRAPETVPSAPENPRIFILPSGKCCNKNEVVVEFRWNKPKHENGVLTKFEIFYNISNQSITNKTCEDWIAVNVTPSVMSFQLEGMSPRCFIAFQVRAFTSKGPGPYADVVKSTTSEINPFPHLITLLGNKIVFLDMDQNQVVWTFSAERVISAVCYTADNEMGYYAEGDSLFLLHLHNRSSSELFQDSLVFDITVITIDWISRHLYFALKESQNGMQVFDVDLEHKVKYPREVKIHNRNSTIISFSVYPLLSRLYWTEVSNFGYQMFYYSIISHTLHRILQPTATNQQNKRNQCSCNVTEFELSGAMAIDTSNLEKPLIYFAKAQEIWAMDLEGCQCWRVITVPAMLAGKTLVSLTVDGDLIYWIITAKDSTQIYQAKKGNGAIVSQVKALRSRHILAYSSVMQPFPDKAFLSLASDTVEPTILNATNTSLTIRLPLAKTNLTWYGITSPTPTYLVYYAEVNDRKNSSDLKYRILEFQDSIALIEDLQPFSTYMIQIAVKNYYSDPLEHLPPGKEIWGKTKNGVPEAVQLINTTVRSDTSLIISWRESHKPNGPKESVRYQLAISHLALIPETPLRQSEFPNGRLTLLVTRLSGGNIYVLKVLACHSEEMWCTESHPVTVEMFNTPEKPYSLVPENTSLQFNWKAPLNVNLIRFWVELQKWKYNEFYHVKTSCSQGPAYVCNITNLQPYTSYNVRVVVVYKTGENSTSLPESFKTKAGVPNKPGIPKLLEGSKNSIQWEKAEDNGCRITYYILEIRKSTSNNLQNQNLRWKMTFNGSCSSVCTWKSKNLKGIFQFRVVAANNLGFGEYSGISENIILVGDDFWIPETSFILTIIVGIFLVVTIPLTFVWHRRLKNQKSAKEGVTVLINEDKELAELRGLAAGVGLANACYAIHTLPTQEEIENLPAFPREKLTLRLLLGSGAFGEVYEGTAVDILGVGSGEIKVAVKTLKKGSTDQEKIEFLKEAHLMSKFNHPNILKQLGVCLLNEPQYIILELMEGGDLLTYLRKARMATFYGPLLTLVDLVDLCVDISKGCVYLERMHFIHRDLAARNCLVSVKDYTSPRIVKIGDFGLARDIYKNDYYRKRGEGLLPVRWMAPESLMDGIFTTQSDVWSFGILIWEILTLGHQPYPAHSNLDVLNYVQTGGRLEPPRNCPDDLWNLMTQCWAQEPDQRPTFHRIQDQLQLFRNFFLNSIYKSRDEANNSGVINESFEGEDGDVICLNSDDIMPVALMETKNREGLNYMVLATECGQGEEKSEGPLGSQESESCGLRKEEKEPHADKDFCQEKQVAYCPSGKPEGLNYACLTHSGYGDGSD
How it was run: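 Radiometric proximity read-out: 33P incorporated into IRS-Tide captured on streptavidin imaging beads and imaged on LEADseeker. Phosphorylation ran 120 min at RT with 20 μM ATP (substrate-mix level) in Tris pH7.5/MgCl2/EGTA/Tween buffer; EDTA stop.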

[1] = biological target: Ba/F3 cells containing Ros1 with G2032R mutation (Homo sapiens, UniProt P08922, G2032R, cells depend on it, form not given); experiment: Ba/F3-Ros1 cell proliferation assay, G2032R crizotinib-resistance mutant; assay type: cell-based, murine; conditions: without IL-3
Chain of Ba/F3 cells containing Ros1 with G2032R mutation (P08922 whole entry G2032R, form open): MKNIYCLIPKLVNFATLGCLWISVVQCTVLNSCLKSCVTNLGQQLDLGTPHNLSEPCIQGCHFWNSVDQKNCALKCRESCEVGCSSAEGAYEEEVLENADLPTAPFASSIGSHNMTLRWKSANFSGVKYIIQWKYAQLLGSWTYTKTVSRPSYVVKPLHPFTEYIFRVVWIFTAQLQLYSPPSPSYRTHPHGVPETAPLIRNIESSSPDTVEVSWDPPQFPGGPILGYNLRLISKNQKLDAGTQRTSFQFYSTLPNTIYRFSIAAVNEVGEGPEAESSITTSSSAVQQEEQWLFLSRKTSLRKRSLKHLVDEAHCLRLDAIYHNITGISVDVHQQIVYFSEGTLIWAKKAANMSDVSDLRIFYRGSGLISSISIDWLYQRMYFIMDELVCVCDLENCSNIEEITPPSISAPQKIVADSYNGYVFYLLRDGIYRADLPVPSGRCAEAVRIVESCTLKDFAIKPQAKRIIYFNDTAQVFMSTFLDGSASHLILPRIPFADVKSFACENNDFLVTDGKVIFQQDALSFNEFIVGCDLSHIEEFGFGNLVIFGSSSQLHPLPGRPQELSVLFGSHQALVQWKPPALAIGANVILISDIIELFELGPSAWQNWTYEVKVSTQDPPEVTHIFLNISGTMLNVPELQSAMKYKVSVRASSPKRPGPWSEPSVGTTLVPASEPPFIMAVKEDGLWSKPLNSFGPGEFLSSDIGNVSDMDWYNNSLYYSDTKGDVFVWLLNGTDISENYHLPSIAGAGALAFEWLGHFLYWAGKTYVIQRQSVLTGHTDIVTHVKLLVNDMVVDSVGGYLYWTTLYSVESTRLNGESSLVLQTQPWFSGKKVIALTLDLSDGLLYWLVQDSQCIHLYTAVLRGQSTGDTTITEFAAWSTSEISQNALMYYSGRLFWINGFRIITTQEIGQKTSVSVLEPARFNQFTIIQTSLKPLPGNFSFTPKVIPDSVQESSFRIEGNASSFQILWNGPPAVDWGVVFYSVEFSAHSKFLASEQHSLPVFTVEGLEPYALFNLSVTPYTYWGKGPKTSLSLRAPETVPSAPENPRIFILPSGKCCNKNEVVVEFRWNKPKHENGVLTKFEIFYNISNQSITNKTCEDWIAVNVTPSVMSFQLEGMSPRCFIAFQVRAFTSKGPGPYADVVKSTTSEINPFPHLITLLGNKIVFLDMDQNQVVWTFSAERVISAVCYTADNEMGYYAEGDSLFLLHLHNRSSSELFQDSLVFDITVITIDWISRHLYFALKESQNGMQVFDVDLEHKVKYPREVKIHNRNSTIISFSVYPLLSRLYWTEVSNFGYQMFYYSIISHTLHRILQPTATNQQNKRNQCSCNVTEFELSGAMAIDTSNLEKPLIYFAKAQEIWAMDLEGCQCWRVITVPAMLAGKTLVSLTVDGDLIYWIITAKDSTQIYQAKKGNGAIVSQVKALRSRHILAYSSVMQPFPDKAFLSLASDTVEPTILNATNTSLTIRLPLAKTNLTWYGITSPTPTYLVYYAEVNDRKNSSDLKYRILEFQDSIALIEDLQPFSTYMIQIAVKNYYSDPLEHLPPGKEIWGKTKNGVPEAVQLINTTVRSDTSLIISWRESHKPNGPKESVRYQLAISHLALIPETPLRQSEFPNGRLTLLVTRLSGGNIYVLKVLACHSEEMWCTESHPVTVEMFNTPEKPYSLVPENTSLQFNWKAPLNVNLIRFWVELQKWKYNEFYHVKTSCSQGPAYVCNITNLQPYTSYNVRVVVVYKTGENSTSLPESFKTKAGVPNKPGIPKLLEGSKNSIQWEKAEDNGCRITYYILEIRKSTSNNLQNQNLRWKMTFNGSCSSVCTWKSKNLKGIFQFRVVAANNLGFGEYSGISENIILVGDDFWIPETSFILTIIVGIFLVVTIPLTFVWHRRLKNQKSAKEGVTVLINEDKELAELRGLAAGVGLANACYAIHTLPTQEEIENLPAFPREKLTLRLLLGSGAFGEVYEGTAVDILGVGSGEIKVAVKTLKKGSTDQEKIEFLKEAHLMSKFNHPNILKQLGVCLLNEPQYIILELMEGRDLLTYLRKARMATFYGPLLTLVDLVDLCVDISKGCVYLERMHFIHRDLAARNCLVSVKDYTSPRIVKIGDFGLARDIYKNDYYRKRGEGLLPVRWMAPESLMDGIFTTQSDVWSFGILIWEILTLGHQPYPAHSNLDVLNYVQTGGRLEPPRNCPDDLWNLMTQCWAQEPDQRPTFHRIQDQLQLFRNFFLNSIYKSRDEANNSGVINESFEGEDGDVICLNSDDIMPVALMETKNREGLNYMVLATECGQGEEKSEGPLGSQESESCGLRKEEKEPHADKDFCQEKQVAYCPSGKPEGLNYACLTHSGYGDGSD
Description: Ba/F3-Ros1 Cell Proliferation Assay
This assay was carried out with Ba/F3 cells containing three different versions of Ros1: the wild-type protein, protein with a mutation at the gatekeeper residue (L2026M), and protein with a mutation identified in a tumor from a patient that became resistant to crizotinib (Xalkori®) treatment (G2032R). Compounds were solubilized in 100% DMSO (dimethyl sulfoxide) and sprayed into polystyrene, tissue culture treated 384-well plates. A 50 μl volume of cell culture medium (phenol red free RPMI-1640, 10% FBS (fetal bovine serum), 2 mM L-Glutamine) containing 20000 Ba/F3-Ros1 cells was added to each well and the plates were placed in an incubator at 37° C. and 5% CO2. After 24 hours, 10 μl of Alamar Blue solution (0.5 mM K3Fe(CN)6, 0.5 mM K4Fe(CN)6, 0.15 mM Resazurin and 100 mM Phosphate Buffer) was added to the wells, incubated for 4 hours at 37° C. and 5% CO2 before RFU's (Relative Fluorescence Units) (ex. 540 nm., em. 590 nm.) were measured in a fluorescence plate reader.

[2] = biological target: Ba/F3 cells containing Ros1 with a mutation at the gatekeeper residue (L2026M) (Homo sapiens, UniProt P08922, L2026M, cells depend on it, form not given); experiment: Ba/F3-Ros1 cell proliferation assay, L2026M gatekeeper mutant; assay type: cell-based, murine; conditions: without IL-3
Chain of Ba/F3 cells containing Ros1 with a mutation at the gatekeeper residue (L2026M) (P08922 whole entry L2026M, form open): as the sequence (P08922 whole entry G2032R, form open) above, with L2026M, R2032G counted along it
How it was run: (§1)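 Compounds dispensed from 100% DMSO; Ba/F3 cells carrying one of three Ros1 forms added at 20000/well in RPMI-1640 with 10% FBS. Plates kept 24 h at 37 °C under 5% CO2. Alamar Blue added, 4 h further incubation, fluorescence measured at 540/590 nm.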

[3] = tested on: HCC78 non-small cell lung cancer cells; experiment: HCC78 cell proliferation assay; assay type: cell-based; conditions: for EC50: Homo sapiens, HCC78, 96 h, read-out: HCC-78 PROL pEC50 (converted)
How it was run: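 HCC78 NSCLC cells (~1000/well) in RPMI-1640 with 10% FBS were treated 24 h after seeding and exposed to compound for 4 days at 37 °C. Viability was read by MTT, with absorbance at 538 nm after DMSO/glycine solubilization.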

[4] = tested on: Ba/F3 cells containing Ros1 wild-type protein + IL-3; experiment: Ba/F3-Ros1 cell proliferation counter-screen, wild-type protein in the presence of 10 ng/ml murine IL-3; assay type: cell-based; conditions: Mus musculus, BaF3, 24 h, read-out: BaF3-ROS1 + IL3 pIC50 (converted)
How it was run: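 IL-3 rescue counter-screen: WT Ros1 Ba/F3, 10 ng/ml mIL-3, 24 h compound exposure, 37 °C/5% CO2; Alamar Blue added 4 h, RFU ex540/em590.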

[5] = biological target: T2, Ba/F3 cells containing Ros1 wild-type protein (Homo sapiens, UniProt P08922, cells depend on it, form not given); experiment: Ba/F3-Ros1 cell proliferation assay, wild-type Ros1; assay type: cell-based, murine; conditions: without IL-3
T2 construct: The background only speaks of 'a number of different unrelated proteins' and names SLC34A2-ROS1 for HCC78 cells
T2 sequence (P08922 whole entry, stated change not applied): as the sequence (P08922 whole entry G2032R, form open) above, with R2032G counted along it
How it was run: as §1

[6] = counter-screen, wild-type, 10 ng/ml murine IL-3

Row | ROS1 pIC50 (Ros1 enzyme) | HCC-78 PROL pEC50 ([3]; HCC78 cells, 4 days, MTT) | EC50 ([3]; HCC78 cells, 4 days, MTT) | SMILES | IC50 (Ros1 enzyme) | Ba/3 Ros1 G2032R (-IL-3) pIC50 [1] | Ba/F3 Ros1 L2026M (-IL-3) pIC50 [2] | melting point | EC50 [3] | CC50 [4] | BaF3-ROS1-IL3 pIC50 [5] | CC50 [4, 6]
1 | – | – | – | CC(C)c1ccc(COc2ccc(-c3c(-c4ccncc4)nn4c3C(=O)N(CCO)CC4)c(C#N)c2)cc1 [Compound 28] | 15.8 nM | 7.3 | 7.7 | 185 °C | 63.1 nM | > 10000 nM | 7.8 | –
2 | – | – | – | CC(C)c1ccc(COc2ccc(-c3c(-c4ccncc4)nn4c3C(=O)N(CCO)CC4)c(F)c2)cc1 [Compound 21] | 10 nM | 7.4 | 7.6 | 141 °C | 39.8 nM | > 10000 nM | 7.8 | –
3 | 7.3 | 7.0 | – | CC(O)CN1CCn2nc(-c3ccncc3)c(-c3ccc(OCc4ccc(C(C)C)cc4)cc3)c2C1=O (centres unmarked) [Compound 46] | – | 6.9 | 7.1 | 177 °C | – | – | 7.5 | –
4 | – | – | – | CC(C)c1ccc(COc2ccc(-c3c(-c4ccncc4)nn4c3C(=O)N(CCO)CC4)cc2F)cc1 [Compound 19] | 12.6 nM | 7.5 | 8.0 | 172 °C | < 31.6 nM | > 10000 nM | 8.2 | –
5 | – | – | – | CC(C)c1ccc(COc2ccc(-c3c(-c4ccncn4)nn4c3C(=O)N(CCO)CC4)cc2)cc1 [Compound 159] | 50.1 nM | 6.4 | 7.2 | 160 °C | 63.1 nM | > 10000 nM | 7.3 | –
6 | – | – | – | CC(C)c1ccc(COc2ccc(-c3c(-c4ccncc4)nn4c3C(=O)N(CC(C)(C)O)CC4)cc2)cc1 [Compound 51] | 79.4 nM | 6.6 | 7.3 | 211 °C | 100 nM | > 10000 nM | 7.2 | –
7 | – | – | 100 nM | CC(C)c1ccc(COc2ccc(-c3c(-c4ccncc4)nn4c3C(=O)N(CCOCCO)CC4)cc2)cc1 [Compound 53] | 39.8 nM | 7.0 | 6.9 | 121 °C | – | – | 7.4 | > 10000 nM
8 | – | – | 79.4 nM | CC(O)CN1CCn2nc(-c3ccncc3)c(-c3ccc(OCc4ccc(C(C)C)cc4)cc3)c2C1=O (centres unmarked) [Compound 47] | 50.1 nM | 6.9 | 7.5 | – | – | – | 7.3 | > 10000 nM
9 | – | – | – | CC(C)c1ccc(COc2ccc(-c3c(-c4ccncc4)nn4c3C(=O)NCC4)cc2F)cc1 [Compound 18] | 10 nM | 7.3 | 7.7 | 241 °C | 39.8 nM | > 10000 nM | 7.7 | –
10 | – | – | – | COCCc1cc(COc2ccc(-c3c(-c4ccncc4)nn4c3C(=O)NCC4)cc2)ccc1C(C)C [Compound 84] | 25.1 nM | 7.0 | 7.2 | 208 °C | 31.6 nM | > 10000 nM | 7.7 | –
11 | – | 6.6 | – | CC(C)c1ccc(COc2ccc(-c3c(-c4ccncc4)nn4c3C(=O)N(CC(O)CO)CC4)cc2)cc1 (centres unmarked) [Compound 44] | 50.1 nM | 6.8 | 6.9 | 192 °C | – | – | 7.4 | –
12 | – | – | – | CC(C)c1ccc(C2CCc3cc(-c4c(-c5ccncc5)nn5c4C(=O)N(CCO)CC5)ccc3O2)cc1 (centres unmarked) [Compound 200] | 126 nM | 6.6 | 6.3 | – | 316 nM | > 10000 nM | 7.3 | –
